Each compound was assayed against T1, catalytic domain of human collagenase 3 (MMP-13) (Homo sapiens, UniProt P45452) (assay: Enzyme activity of the catalytic domain of human collagenase 3 (MMP-13), fluorogenic substrate). Conditions: determined graphically from % inhibition, read-out: IC50 MMP13.
T1 construct: Determining the enzyme activity of the catalytic domain of human collagenase 3 (MMP-13); purchased INVITEK, Berlin 30 100 803
Type: biochemical
Description: Determining the enzyme activity of the catalytic domain of human collagenase 3 (MMP-13).
Activating the proenzyme:
2 parts by volume of proenzyme are incubated with 1 part by volume of APMA solution at 37° C. for 1.5 hours. The APMA solution is prepared from a 10 mmol/l solution of p-aminophenylmercuric acetate in […] by diluting with 3 parts by volume of tris/HCl buffer, pH 7.5 (see below). The pH is adjusted to between 7.0 and 7.5 by adding 1 mmol/I HCl. After the enzyme has been activated, it is diluted to a concentration of 1.67 μg/ml using the tris/HCl buffer.
In order to measure the enzyme activity, 10 μl of enzyme solution are incubated for 15 minutes with 10 μl of a 3% (v/v) buffered solution of dimethyl sulfoxide (reaction 1). In order to measure the enzyme inhibitor activity, 10 μl of enzyme solution are incubated with 10 μl of a 3% (v/v) buffered solution of dimethyl sulfoxide containing the enzyme inhibitor (reaction 2).
In the case of both reaction 1 and reaction 2, the enzyme reaction is monitored by fluorescence spectroscopy (328 nm (extinction)/393 nm (emission)) after adding 10 μl of a 3% (v/v) aqueous solution of dimethyl sulfoxide containing 0.75 mmol of the substrate/l.
The enzyme activity is depicted as increase in extinction/minute.
The effect of the inhibitor is calculated as a percentage inhibition using the following formula: % inhibition=100−[(increase in extinction/minute in reaction 2)/(increase in extinction/minute in reaction 1)×100].
The IC50, i.e., the inhibitor concentration that is required for inhibiting the enzyme activity by 50%, is determined graphically by plotting the percentage inhibitions at different inhibitor concentrations.
The buffer solution contains 0.05% Brij (Sigma, Deisenhofen, Germany) and 0.1 mol of tris/HCl/l, 0.1 mol of NaCl/l and 0.01 mol of CaCl2/l (pH=7.5). The enzyme solution contains 1.67 μg of the enzyme domain/ml. The substrate solution contains 0.75 mmol/l of the fluorogenic substrate (7-methoxycoumarin4-yl)acetyl-Pro-Leu-Gly-Leu-3-(2′,4′-dinitrophenyl)-L-2,3-diaminopropionyl-Ala-Arg-NH2 (Bachem, Heidelberg, Germany).
`Cc1cc(CNC(=O)c2cc(C(=O)NCc3ccc(OCC(=O)OC(C)(C)C)cc3)ncn2)ccc1F` [Example 1, tert-Butyl [4-({[6-(4-fluoro-3-methylbenzylcarbamoyl)pyrimidine-4-carbonyl]amino}methyl)phenoxy]acetate] gave an IC50 of 12 nM.
For `Cc1cc(CNC(=O)c2cc(C(=O)NCc3ccc(OCC(=O)O)cc3)ncn2)ccc1F` [Example 2, [4-({[6-(4-Fluoro-3-methylbenzylcarbamoyl)pyrimidine-4-carbonyl]-amino}methyl)phenoxy]acetic acid], the IC50 was 7 nM.
`COc1cccc(CNC(=O)c2cc(C(=O)NCc3ccc(C)s3)ncn2)c1` [Example 4] showed an IC50 of 24 nM.
In the case of `COc1cc(CNC(=O)c2cc(C(=O)NCc3ccc(F)c(Br)c3)ncn2)ccn1` [Example 11], the IC50 is reported as 30 nM.
In the case of `COc1cc(CNC(=O)c2cc(C(=O)NCc3ccc(F)c(Cl)c3)ncn2)ccn1` [Example 20], the IC50 is reported as 50 nM.
For `O=C(NCCc1cccs1)c1cc(C(=O)NCc2ccc(F)c(Cl)c2)ncn1` [Example 28], the IC50 was 100 nM.
`Cc1cc(CNC(=O)c2cc(C(=O)NCc3sccc3C)ncn2)ccc1F` [Example 35] showed an IC50 of 200 nM.
Work on `COc1cccc(CNC(=O)c2cc(C(=O)NCc3nccs3)ncn2)c1` [Example 44] yielded an IC50 of 500 nM.

Each compound was assayed against T2, prolyl 4-hydroxylase (Gallus gallus, UniProt P16924) (assay: Prolyl hydroxylase inhibition (method of Majamaa, version of Kaule and Guenzler)). Conditions: enzyme from 14-day-old chick embryos; concentrations of from 0.1 μM to 1 mM.
T2 construct: from tissue; host or cells: 14-day-old chick embryos (homogenate)
T2 sequence (P16924 1-516): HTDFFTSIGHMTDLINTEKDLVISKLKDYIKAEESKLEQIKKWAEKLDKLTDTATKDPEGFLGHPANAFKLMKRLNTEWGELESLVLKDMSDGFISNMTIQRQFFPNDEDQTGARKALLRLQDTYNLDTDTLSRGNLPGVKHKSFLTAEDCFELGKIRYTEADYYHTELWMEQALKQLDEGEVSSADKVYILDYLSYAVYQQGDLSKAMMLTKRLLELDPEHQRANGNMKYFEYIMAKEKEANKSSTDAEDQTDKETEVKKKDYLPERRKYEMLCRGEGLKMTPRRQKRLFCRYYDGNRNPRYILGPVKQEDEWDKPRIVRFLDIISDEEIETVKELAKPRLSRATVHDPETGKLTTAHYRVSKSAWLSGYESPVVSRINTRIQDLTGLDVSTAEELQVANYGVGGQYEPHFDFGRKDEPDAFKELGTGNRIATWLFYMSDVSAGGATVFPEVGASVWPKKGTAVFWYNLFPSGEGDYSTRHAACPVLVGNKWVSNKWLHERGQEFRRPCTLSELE
T2 sequence (P09102 23-515 partner): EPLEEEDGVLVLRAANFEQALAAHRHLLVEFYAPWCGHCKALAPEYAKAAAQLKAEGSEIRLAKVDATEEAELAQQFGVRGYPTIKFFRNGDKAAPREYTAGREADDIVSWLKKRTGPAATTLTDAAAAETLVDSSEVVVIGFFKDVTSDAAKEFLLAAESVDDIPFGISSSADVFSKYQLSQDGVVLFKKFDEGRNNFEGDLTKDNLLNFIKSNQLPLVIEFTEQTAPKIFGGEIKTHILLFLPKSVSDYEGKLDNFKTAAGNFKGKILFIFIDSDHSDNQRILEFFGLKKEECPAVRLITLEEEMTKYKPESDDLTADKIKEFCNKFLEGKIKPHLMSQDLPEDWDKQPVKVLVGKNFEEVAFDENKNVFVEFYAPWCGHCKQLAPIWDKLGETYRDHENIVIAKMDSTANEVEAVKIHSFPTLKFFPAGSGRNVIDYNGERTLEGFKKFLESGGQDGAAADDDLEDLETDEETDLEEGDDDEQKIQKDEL
Type: biochemical
Description: Determining prolyl hydroxylase inhibition by the method of Majamaa Eur. J. Biochem. 138 (1984) 239-245 using the version of Kaule and guenzler Analytical Biochemistry 184 (1990) 291-297.
0.03 μg of prolyl 4-hydroxylase, which was prepared, by the method of Kedersa, Collagen Relat. Res. 1 (1981) 345-353, from homogenized 14-day-old chick embryos by ammonium sulfate precipitation and affinity chromatography on poly-L-proline-coupled Sepharose 4B and subsequent DEAE cellulose chromatography, was incubated, at 37° C. for one hour, in 0.05 ml of an 0.04 M tris-HCl solution (pH=7.5) containing 0.05 mM FeSO4, 0.1 mM 2-oxo-[5-C-14]glutarate (100,000 dpm), 20 μg (0.4 mg/ml) of (Pro-Pro-Gly)10 (Protein Research Foundation, Minoh, Osaka, Japan), 1 mM ascorbic acid, 0.4 mg of catalase/ml, 0.5 mM dithiothreitol and 2 mg of bovine serum albumin/ml, as well as the concentration of the inhibitor to be measured (the comparison experiment was carried out without any inhibitor). After that, 25 μl of a 20 mM succinate and 2-oxaglutarate solution, and also 25 μl of a 0.16 M 2,4-DNPH solution containing 30% HClO4, were added. After the mixture had been incubated at room temperature for a further 30 minutes, it was centrifuged at 3000 g for 5 minutes. The radioactivity of 100 μl of the supernatant was determined by liquid scintillation. Production of the [1-C-14] succinate was given in dpm. Unless otherwise indicated, all the chemicals and reagents were obtained from Sigma, Sigma D-82024 Taufkirchen.
The compounds tested in Table 3 were used at concentrations of from 0.1 μM to 1 mM. Where it was possible, the IC50 value was determined by graphic extrapolarization of the individual results. This value denotes the concentration of active inhibitors that led to 50% inhibition of the enzyme.
For `Cc1cc(CNC(=O)c2cc(C(=O)NCc3cccs3)ncn2)ccc1F` [Example 7], the “Prolyl hydroxylase IC50” value was “No inhibition”.
For `O=C(NCc1ccncc1)c1cc(C(=O)NCc2ccc(F)c(Cl)c2)ncn1` [Example 14], the “Prolyl hydroxylase IC50” value was “No inhibition”.
In the case of `COc1cccc(CNC(=O)c2cc(C(=O)NCc3ccncc3)ncn2)c1` [Example 22], the “Prolyl hydroxylase IC50” value is reported as “No inhibition”.
In the case of `COc1cccc(CNC(=O)c2cc(C(=O)NCc3cccc(OCCN(C)C)c3)ncn2)c1` [Example 69], the “Prolyl hydroxylase IC50” value is reported as “No inhibition”.
With `COc1cccc(CNC(=O)c2cc(C(=O)NCc3ccc(OCCN(C)C)cc3)ncn2)c1` [Example 70] the “Prolyl hydroxylase IC50” value was “No inhibition”.
`COc1cccc(CNC(=O)c2cc(C(=O)NCc3ccc(OCCCN(C)C)cc3)ncn2)c1` [Example 71] was tested, and the “Prolyl hydroxylase IC50” value was “No inhibition”.
In the case of `O=C(NCc1ccc(OCCN2CCOCC2)cc1)c1cc(C(=O)NCc2ccc(F)c(Cl)c2)ncn1` [Example 72], the “Prolyl hydroxylase IC50” value is reported as “No inhibition”.
`O=C(NCc1ccc(F)c(Cl)c1)c1cc(C(=O)NCc2cccs2)ncn1` [Example 83] was tested, and the “Prolyl hydroxylase IC50” value was “No inhibition”.
In the case of `Cc1ccc(CNC(=O)c2cc(C(=O)NCc3ccc(F)c(C)c3)ncn2)o1` [Example 84], the “Prolyl hydroxylase IC50” value is reported as “No inhibition”.
`O=C(O)c1cc(C(=O)O)ncn1` [Pyrimidine-4,6-dicarboxylic acid, reference compound] was tested, and the IC50 was 1200 nM.

— patent publication US20050004111A1, “Selective MMP-13 inhibitors” (AVENTIS PHARMA DEUTSCHLAND GMBH, priority 2003, published 2005)
